Results published in patent publication US6977262B2, “Dihydropyrazolopyridine compounds and pharmaceutical use thereof” (Mitsubishi Pharma Corporation, priority 2001, dated 2005).

For `CCOC(=O)C1=C(C)Nc2n[nH]cc2C1c1ccccc1C(F)(F)F` (stereo not drawn) [Example 3, Ethyl 4,7-dihydro-6-methyl-4-(2-trifluoromethylphenyl)-2H-pyrazolo[3,4-b]pyridine-5-carboxylate], the melting point was 259 to 262 °C. Work on `COC(=O)C1=C(C)Nc2n[nH]cc2C1c1ccccc1Cl` (stereo not drawn) [Example 4, Methyl 4-(2-chlorophenyl)-4,7-dihydro-6-methyl-2H-pyrazolo[3,4-b]pyridine-5-carboxylate] yielded a melting point of 235 °C. Work on `CC1=C(C(=O)OC(C)(C)C)C(c2ccccc2Cl)c2c[nH]nc2N1` (stereo not drawn) [Example 5, t-Butyl 4-(2-chlorophenyl)-4,7-dihydro-6-methyl-2H-pyrazolo[3,4-b]pyridine-5-carboxylate] yielded a melting point of 207 °C. Work on `CC1=C(C(=O)OCc2ccccc2)C(c2ccccc2Cl)c2c[nH]nc2N1` (stereo not drawn) [Example 7, Benzyl 4-(2-chlorophenyl)-4,7-dihydro-6-methyl-2H-pyrazolo[3,4-b]pyridine-5-carboxylate] yielded a melting point of 234 °C. Compound `CC1=C(C(=O)N(C)C)C(c2ccccc2Cl)c2c[nH]nc2N1` (stereo not drawn) [Example 8, 4-(2-Chlorophenyl)-5-dimethylaminocarbonyl-4,7-dihydro-6-methyl-2H-pyrazolo[3,4-b]pyridine] has a melting point of 229 °C. Work on `CC1=C(C(=O)NN)C(c2ccccc2Cl)c2c[nH]nc2N1` (stereo not drawn) [Example 9, 4-(2-Chlorophenyl)-5-hydrazinocarbonyl-4,7-dihydro-6-methyl-2H-pyrazolo[3,4-b]pyridine] yielded a melting point of 220 °C. With `CCOC(=O)C1=C(C(F)(F)F)Nc2n[nH]cc2C1c1ccccc1` (stereo not drawn) [Example 12, Ethyl 4,7-dihydro-4-phenyl-6-trifluoromethyl-2H-pyrazolo[3,4-b]pyridine-5-carboxylate] the melting point was 110 to 115 °C. Compound `CCOC(=O)C1=C(C(F)(F)F)Nc2n[nH]cc2C1c1ccccc1F` (stereo not drawn) [Example 13, Ethyl 4-(2-fluorophenyl)-4,7-dihydro-6-trifluoromethyl-2H-pyrazolo[3,4-b]pyridine-5-carboxylate] has a melting point of 119 to 120 °C. For `CCOC(=O)C1=C(C(F)(F)F)Nc2n[nH]cc2C1c1ccccc1Cl.O=C(O)/C=C\C(=O)O` (stereo not drawn) [Example 14, Ethyl 4-(2-chlorophenyl)-4,7-dihydro-6-trifluoromethyl-2H-pyrazolo[3,4-b]pyridine-5-carboxylate maleate], the melting point was 171 to 172 °C. In the case of `CCOC(=O)C1=C(C(F)(F)F)Nc2n[nH]cc2C1c1ccccc1OC` (stereo not drawn) [Example 15, Ethyl 4,7-dihydro-4-(2-methoxyphenyl)-6-trifluoromethyl-2H-pyrazolo[3,4-b]pyridine-5-carboxylate], the melting point is reported as 144 to 146 °C. Work on `CCOC(=O)C1=C(C(F)(F)F)Nc2n[nH]cc2C1c1ccccc1C(F)(F)F` (stereo not drawn) [Example 16, Ethyl 4,7-dihydro-6-trifluoromethyl-4-(2-trifluoromethylphenyl)-2H-pyrazolo[3,4-b]pyridine-5-carboxylate] yielded a melting point of 182 to 186 °C. With `CCOC(=O)C1=C(C(F)(F)F)Nc2n[nH]cc2C1c1cccc(Cl)c1` (stereo not drawn) [Example 17, Ethyl 4-(3-chlorophenyl)-4,7-dihydro-6-trifluoromethyl-2H-pyrazolo[3,4-b]pyridine-5-carboxylate] the melting point was 144 to 145 °C. `CCOC(=O)C1=C(C(F)(F)F)Nc2n[nH]cc2C1c1ccc(Cl)cc1` (stereo not drawn) [Example 18, Ethyl 4-(4-chlorophenyl)-4,7-dihydro-6-trifluoromethyl-2H-pyrazolo[3,4-b]pyridine-5-carboxylate] gave a melting point of 176 to 178 °C. `CCOC(=O)C1=C(C(F)(F)F)Nc2n[nH]cc2C1c1ccc(OC)cc1` (stereo not drawn) [Example 19, Ethyl 4,7-dihydro-4-(4-methoxyphenyl)-6-trifluoromethyl-2H-pyrazolo[3,4-b]pyridine-5-carboxylate] showed a melting point of 159 to 161 °C. `CCOC(=O)C1=C(C(F)(F)F)Nc2n[nH]cc2C1c1ccc(C(=O)OCC)cc1` (stereo not drawn) [Example 20, Ethyl 4-(4-ethoxycarbonylphenyl)-4,7-dihydro-6-trifluoromethyl-2H-pyrazolo[3,4-b]pyridine-5-carboxylate] gave a melting point of 157 to 160 °C. Compound `CCOC(=O)C1=C(C(F)(F)F)Nc2n[nH]c(C)c2C1c1ccccc1Cl` (stereo not drawn) [Example 21, Ethyl 4-(2-chlorophenyl)-4,7-dihydro-3-methyl-6-trifluoromethyl-2H-pyrazolo[3,4-b]pyridine-5-carboxylate] has a melting point of 165 to 168 °C. Work on `CCOC(=O)C1=C(C(F)(F)F)Nc2n[nH]cc2C1c1cccs1` (stereo not drawn) [Example 22, Ethyl 4,7-dihydro-4-(thiophen-2-yl)-6-trifluoromethyl-2H-pyrazolo[3,4-b]pyridine-5-carboxylate] yielded a melting point of 157 to 161 °C. With `CCOC(=O)C1=C(C(F)(F)F)Nc2n[nH]cc2C1c1ccsc1` (stereo not drawn) [Example 23, Ethyl 4,7-dihydro-4-(thiophen-3-yl)-6-trifluoromethyl-2H-pyrazolo[3,4-b]pyridine-5-carboxylate] the melting point was 140 to 145 °C. `CCOC(=O)C1=C(C(F)(F)F)Nc2n[nH]cc2C1c1cccc2ccccc12` (stereo not drawn) [Example 24, Ethyl 4,7-dihydro-4-(1-naphthyl)-6-trifluoromethyl-2H-pyrazolo[3,4-b]pyridine-5-carboxylate] showed a melting point of 119 to 120 °C. Compound `CCCC1=C(C(=O)OCC)C(c2ccccc2)c2c[nH]nc2N1.O=C(O)/C=C\C(=O)O` (stereo not drawn) [Example 25, Ethyl 4,7-dihydro-4-phenyl-6-propyl-2H-pyrazolo[3,4-b]pyridine-5-carboxylate maleate] has a melting point of 139 to 141 °C. `CCCC1=C(C(=O)OCC)C(c2ccccc2F)c2c[nH]nc2N1` (stereo not drawn) [Example 26, Ethyl 4-(2-fluorophenyl)-4,7-dihydro-6-propyl-2H-pyrazolo[3,4-b]pyridine-5-carboxylate] gave a melting point of 192 to 194 °C. `CCCC1=C(C(=O)OCC)C(c2ccccc2Cl)c2c[nH]nc2N1` (stereo not drawn) [Example 27, Ethyl 4-(2-chlorophenyl)-4,7-dihydro-6-propyl-2H-pyrazolo[3,4-b]pyridine-5-carboxylate] showed a melting point of 202 to 205 °C. For `CCCC1=C(C(=O)OC)C(c2ccccc2Cl)c2c[nH]nc2N1` (stereo not drawn) [Example 28, Methyl 4-(2-chlorophenyl)-4,7-dihydro-6-propyl-2H-pyrazolo[3,4-b]pyridine-5-carboxylate], the melting point was 203 to 207 °C. For `CCCC1=C(C(=O)OCC)C(c2ccccc2Br)c2c[nH]nc2N1` (stereo not drawn) [Example 29, Ethyl 4-(2-bromophenyl)-4,7-dihydro-6-propyl-2H-pyrazolo[3,4-b]pyridine-5-carboxylate], the melting point was 223 °C. Work on `CCCC1=C(C(=O)OCC)C(c2ccccc2C)c2c[nH]nc2N1` (stereo not drawn) [Example 30, Ethyl 4,7-dihydro-4-(2-methylphenyl)-6-propyl-2H-pyrazolo[3,4-b]pyridine-5-carboxylate] yielded a melting point of 178 °C. `CCCC1=C(C(=O)OCC)C(c2ccccc2C(F)(F)F)c2c[nH]nc2N1` (stereo not drawn) [Example 31, Ethyl 4,7-dihydro-6-propyl-4-(2-trifluoromethylphenyl)-2H-pyrazolo[3,4-b]pyridine-5-carboxylate] showed a melting point of 198 to 202 °C. Compound `CCCC1=C(C(=O)OCC)C(c2ccccc2OC)c2c[nH]nc2N1` (stereo not drawn) [Example 32, Ethyl 4,7-dihydro-4-(2-methoxyphenyl)-6-propyl-2H-pyrazolo[3,4-b]pyridine-5-carboxylate] has a melting point of 169 °C. Work on `CCCC1=C(C(=O)OCC)C(c2ccccc2OCC)c2c[nH]nc2N1` (stereo not drawn) [Example 33, Ethyl 4-(2-ethoxyphenyl)-4,7-dihydro-6-propyl-2H-pyrazolo[3,4-b]pyridine-5-carboxylate] yielded a melting point of 203 °C. `CCCOc1ccccc1C1C(C(=O)OCC)=C(CCC)Nc2n[nH]cc21` (stereo not drawn) [Example 34, Ethyl 4,7-dihydro-4-(2-propoxyphenyl)-6-propyl-2H-pyrazolo[3,4-b]pyridine-5-carboxylate] gave a melting point of 205 °C. With `CCCC1=C(C(=O)OCC)C(c2ccccc2OC(C)C)c2c[nH]nc2N1` (stereo not drawn) [Example 35, Ethyl 4,7-dihydro-4-(2-isopropyloxyphenyl)-6-propyl-2H-pyrazolo[3,4-b]pyridine-5-carboxylate] the melting point was 210 °C. For `CCCCOc1ccccc1C1C(C(=O)OCC)=C(CCC)Nc2n[nH]cc21` (stereo not drawn) [Example 36, Ethyl 4-(2-butoxyphenyl)-4,7-dihydro-6-propyl-2H-pyrazolo[3,4-b]pyridine-5-carboxylate], the melting point was 171 °C. Work on `CCCC1=C(C(=O)OCC)C(c2ccccc2OC2CCCC2)c2c[nH]nc2N1` (stereo not drawn) [Example 37, Ethyl 4-(2-cyclopentyloxyphenyl)-4,7-dihydro-6-propyl-2H-pyrazolo[3,4-b]pyridine-5-carboxylate] yielded a melting point of 195 °C. Compound `CCCC1=C(C(=O)OCC)C(c2ccccc2OCc2ccccc2)c2c[nH]nc2N1` (stereo not drawn) [Example 38, Ethyl 4-(2-benzyloxyphenyl)-4,7-dihydro-6-propyl-2H-pyrazolo[3,4-b]pyridine-5-carboxylate] has a melting point of 128 °C. Work on `CCCC1=C(C(=O)OCC)C(c2ccccc2SC)c2c[nH]nc2N1` (stereo not drawn) [Example 39, Ethyl 4,7-dihydro-4-(2-methylthiophenyl)-6-propyl-2H-pyrazolo[3,4-b]pyridine-5-carboxylate] yielded a melting point of 198 °C. With `CCCC1=C(C(=O)OCC)C(c2ccccc2[S+](C)[O-])c2c[nH]nc2N1` (stereo not drawn) [Example 40, Ethyl 4,7-dihydro-4-(2-methylsulfinylphenyl)-6-propyl-2H-pyrazolo[3,4-b]pyridine-5-carboxylate] the melting point was 216 °C. For `CCCC1=C(C(=O)OCC)C(c2ccccc2[N+](=O)[O-])c2c[nH]nc2N1` (stereo not drawn) [Example 41, Ethyl 4,7-dihydro-4-(2-nitrophenyl)-6-propyl-2H-pyrazolo[3,4-b]pyridine-5-carboxylate], the melting point was 218 °C. `CCCC1=C(C(=O)OCC)C(c2ccccc2C#N)c2c[nH]nc2N1` (stereo not drawn) [Example 42, Ethyl 4-(2-cyanophenyl)-4,7-dihydro-6-propyl-2H-pyrazolo[3,4-b]pyridine-5-carboxylate] showed a melting point of 211 °C. Compound `CCCC1=C(C(=O)OCC)C(c2cccc(F)c2F)c2c[nH]nc2N1` (stereo not drawn) [Example 43, Ethyl 4-(2,3-difluorophenyl)-4,7-dihydro-6-propyl-2H-pyrazolo[3,4-b]pyridine-5-carboxylate] has a melting point of 207 °C. In the case of `CCCC1=C(C(=O)OCC)C(c2cccc(Cl)c2Cl)c2c[nH]nc2N1` (stereo not drawn) [Example 44, Ethyl 4-(2,3-dichlorophenyl)-4,7-dihydro-6-propyl-2H-pyrazolo[3,4-b]pyridine-5-carboxylate], the melting point is reported as 220 °C.
